Test results taken from ChEMBL document CHEMBL5316338, “Discovery of Novel PTP1B Inhibitors with Once-Weekly Therapeutic Potential for Type 2 Diabetes: Design, Synthesis, and In Vitro and In Vivo Investigations of BimBH3 Peptide Analogues” (J Med Chem, 2023).
Calls of active or inactive are those of the source. The rule behind the calls is not given here. Square brackets hold non-standard residues; d marks the D form. Peptide text beside a SMILES is read from it. * marks the point of attachment. ξ: configuration not given here. C20 diacid = O=C(O)CCCCCCCCCCCCCCCCCCC(=O)*; Palmitoyl = CCCCCCCCCCCCCCCC(=O)*; ξR = N=C(N)NCCCC(N)C(=O)O

What was measured:
[1] = molecular target: T1, Tyrosine-protein phosphatase non-receptor type 1 (Homo sapiens) (UniProt P18031); assay: Inhibition of N-terminal His tagged recombinant human PTP1B expressed in Escherichia coli using pNPP as substrate assessed as substrate hydrolysis at 40 umol/L relative to control; conditions: dose 40.0 µmol/L
T1 sequence (whole entry): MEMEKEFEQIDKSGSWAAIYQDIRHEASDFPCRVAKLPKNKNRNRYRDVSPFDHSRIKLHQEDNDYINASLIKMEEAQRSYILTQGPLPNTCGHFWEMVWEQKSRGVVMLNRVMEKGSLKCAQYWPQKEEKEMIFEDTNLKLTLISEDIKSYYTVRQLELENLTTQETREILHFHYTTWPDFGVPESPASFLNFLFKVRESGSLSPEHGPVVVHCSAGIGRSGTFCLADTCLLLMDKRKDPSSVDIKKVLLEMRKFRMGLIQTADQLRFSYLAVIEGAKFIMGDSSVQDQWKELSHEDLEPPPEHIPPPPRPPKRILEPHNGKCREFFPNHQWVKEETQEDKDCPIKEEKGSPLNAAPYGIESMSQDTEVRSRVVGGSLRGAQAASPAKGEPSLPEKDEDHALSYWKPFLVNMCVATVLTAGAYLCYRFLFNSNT

[2] = molecular target: T2, Tyrosine-protein phosphatase non-receptor type 1 (Homo sapiens, UniProt P18031); assay: Inhibition of N-terminal His tagged recombinant human PTP1B expressed in Escherichia coli using pNPP as substrate assessed as substrate hydrolysis
T2 sequence (P18031 whole entry): T1 sequence (whole entry)

[3] = system: Proteinase K; assay: Stability of compound assessed as Proteinase K (unknown origin) mediated compound degradation by measuring half-life by HPLC analysis; format: ADME
[4] = system: Pepsin; assay: Stability of compound assessed as Pepsin (unknown origin) mediated compound degradation by measuring half-life by HPLC analysis; format: ADME; conditions: human
[5] = molecular target: chymotrypsin (Homo sapiens, UniProt P17538+P40313+Q6GPI1+Q99895); assay: Stability of compound assessed as chymotrypsin (unknown origin) mediated compound degradation by measuring half-life by RP-HPLC analysis; format: ADME, protein assay
[6] = molecular target: T3, carboxypeptidase A (Homo sapiens, UniProt P15085); assay: Stability of compound assessed as carboxypeptidase A (unknown origin) mediated compound degradation by measuring half-life by RP-HPLC analysis; format: ADME
T3 sequence (P15085 whole entry): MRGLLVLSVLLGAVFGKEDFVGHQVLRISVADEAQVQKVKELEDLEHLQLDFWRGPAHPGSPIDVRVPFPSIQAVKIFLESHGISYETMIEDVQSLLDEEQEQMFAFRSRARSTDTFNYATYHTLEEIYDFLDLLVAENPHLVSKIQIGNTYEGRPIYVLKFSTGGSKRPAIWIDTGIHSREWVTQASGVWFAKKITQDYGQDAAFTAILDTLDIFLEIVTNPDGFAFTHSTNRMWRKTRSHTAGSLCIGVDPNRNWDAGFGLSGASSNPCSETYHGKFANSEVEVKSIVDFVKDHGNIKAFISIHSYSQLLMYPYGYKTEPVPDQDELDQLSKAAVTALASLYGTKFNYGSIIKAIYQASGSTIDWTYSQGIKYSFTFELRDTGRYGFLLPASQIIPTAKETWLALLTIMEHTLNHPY

[7] = Stability of compound assessed as Proteinase K (unknown origin) mediated compound degradation by measuring fold change of half-life by HPLC analysis relative to BimBH312-mer peptide; format: ADME
[8] = Stability of compound assessed as Pepsin (unknown origin) mediated compound degradation by measuring fold change of half-life by HPLC analysis relative to BimBH312-mer peptide; format: ADME; conditions: human
[9] = molecular target: Chymotrypsin (Homo sapiens, UniProt Q99895+P17538+P40313+Q6GPI1); assay: Stability of compound assessed as chymotrypsin (unknown origin) mediated compound degradation by measuring fold change of half-life by RP-HPLC analysis relative to BimBH312-mer peptide; format: ADME, protein assay
[10] = molecular target: T4, Carboxypeptidase A1 (Homo sapiens, UniProt P15085); assay: Stability of compound assessed as carboxypeptidase A (unknown origin) mediated compound degradation by measuring fold change of half-life by RP-HPLC analysis relative to BimBH312-mer peptide; format: ADME
T4 sequence (P15085 whole entry): T3 sequence (P15085 whole entry)

[11] = molecular target: T5, Tyrosine-protein phosphatase non-receptor type 2 (Homo sapiens, UniProt P17706); assay: Inhibition of recombinant human TC-PTP (1 to 314 residues) expressed in baculovirus infected insect cells using pNPP as substrate assessed as substrate hydrolysis; set-up: species or system Insect cell
T5 sequence (P17706 whole entry): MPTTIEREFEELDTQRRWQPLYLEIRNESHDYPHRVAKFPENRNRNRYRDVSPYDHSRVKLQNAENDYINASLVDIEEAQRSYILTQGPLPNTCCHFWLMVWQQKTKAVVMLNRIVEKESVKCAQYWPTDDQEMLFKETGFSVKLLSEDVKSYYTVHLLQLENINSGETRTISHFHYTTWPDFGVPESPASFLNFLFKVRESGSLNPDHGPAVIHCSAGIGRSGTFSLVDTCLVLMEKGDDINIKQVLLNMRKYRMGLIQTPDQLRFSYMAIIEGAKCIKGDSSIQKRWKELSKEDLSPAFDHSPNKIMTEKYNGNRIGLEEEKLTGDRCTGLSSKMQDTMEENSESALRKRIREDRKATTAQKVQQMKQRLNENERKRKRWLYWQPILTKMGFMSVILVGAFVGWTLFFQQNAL

[12] = molecular target: T6, Tyrosine-protein phosphatase non-receptor type 2 (Homo sapiens) (UniProt P17706); assay: Inhibition of recombinant human TC-PTP (1 to 314 residues) expressed in baculovirus infected insect cells using pNPP as substrate assessed as substrate hydrolysis at 50 umol/L relative to control; conditions: Insect cell, dose 50.0 µmol/L
T6 sequence (whole entry): T5 sequence (P17706 whole entry)

[13] = species: Homo sapiens; assay: Selectivity index, ratio of IC50 for inhibition of recombinant human TC-PTP (1 to 314 residues) expressed in baculovirus infected insect cells to IC50 for inhibition of N-terminal His-tagged recombinant human PTP1B expressed in Escherichia coli
[14] = system: Mus musculus; assay: Antidiabetic activity against C57BL/Ks db/db mouse assessed as redcution in fasting blood glucose level at 1 umol/kg administered subcutaneously and measured immediately by glucometer analysis (reference value: 19.0 +/- 2.7 […]); format: functional; conditions: dose 1 µmol/kg; route sc
[15] = system: Mus musculus; assay: Antidiabetic activity against C57BL/Ks db/db mouse assessed as redcution in fasting blood glucose level at 1 umol/kg, sc administered once a week and measured on day 8 by glucometer analysis (reference value: 27.7 +/- 3.7 […]); format: functional; conditions: dose 1 µmol/kg, time 8 day
[16] = system: Mus musculus; assay: Antidiabetic activity against C57BL/Ks db/db mouse assessed as redcution in fasting blood glucose level at 1 umol/kg, sc administered once a week and measured on day 15 by glucometer analysis (reference value: 27.3 +/- 2.4 […]); format: functional; conditions: dose 1 µmol/kg, time 15 day
[17] = system: Mus musculus; assay: Antidiabetic activity against C57BL/Ks db/db mouse assessed as redcution in fasting blood glucose level at 1 umol/kg, sc administered once a week and measured on day 24 by glucometer analysis (reference value: 30.2 +/- 3.2 […]); format: functional; conditions: dose 1 µmol/kg, time 24 day
[18] = system: Mus musculus; assay: Antidiabetic activity against C57BL/Ks db/db mouse assessed as redcution in fasting blood glucose level at 1 umol/kg, sc administered once a week and measured on day 26 by glucometer analysis (reference value: 31.4 +/- 2.2 […]); format: functional; conditions: dose 1 µmol/kg, time 26 day
[19] = system: Mus musculus; assay: Antidiabetic activity against C57BL/Ks db/db mouse assessed as redcution in fasting blood glucose level at 1 umol/kg, sc administered once a week and measured on day 28 by glucometer analysis (reference value: 32.4 +/- 1.1 […]); format: functional; conditions: dose 1 µmol/kg, time 28 day
[20] = system: Mus musculus; assay: Antidiabetic activity against over-night fasted C57BL/ks db/db mouse assessed as suppression of increased blood glucose concentration at 1 uM/kg, sc pretreated with compound for 4 weeks followed by oral glucose stimulation and measured upto 120 mins by oral glucose tolerance test; format: functional, organism-based; conditions: time 40440.0 min
[21] = system: Mus musculus; assay: Antidiabetic activity against over-night fasted C57BL/ks db/db mouse assessed as suppression of increased blood glucose concentration at 1 uM/kg, sc pretreated with compound for 4 weeks followed by insulin stimulation and measured for 90 mins by insulin tolerance test; format: functional, organism-based; conditions: time 40410.0 min
[22] = system: Mus musculus; assay: Antidiabetic activity against sc dosed C57BL/Ks db/db mouse assessed as reduction in serum insulin level at 1 umol/kg by ELISA analysis; format: functional, organism-based; conditions: dose 1.0 µmol/kg
[23] = system: Mus musculus; assay: Antidiabetic activity against sc dosed C57BL/Ks db/db mouse assessed as reduction in C-peptide level at 1 umol/kg by ELISA analysis; format: functional, organism-based; conditions: dose 1.0 µmol/kg
[24] = system: Mus musculus; assay: Antidiabetic activity against sc dosed C57BL/Ks db/db mouse assessed as reduction in glucagon level at 1 umol/kg by ELISA analysis; format: functional, organism-based; conditions: dose 1.0 µmol/kg

| inhibition [1] [%] | IC50 [2] [nM] | half-life [3] [h] | half-life [4] [h] | half-life [5] [h] | half-life [6] [h] | fold change (FC) [7] | fold change (FC) [8] | fold change (FC) [9] | fold change (FC) [10] | SMILES | other results |
| --- | --- | --- | --- | --- | --- | --- | --- | --- | --- | --- | --- |
| > 50 | 960 | 2.82 | 2.7 | 0.56 | 3.19 | 56.4 | 122.7 | 13 | 99.7 | CCCCCCCCCCCCCCCC(=O)N[C@H](C(=O)N[C@@H](C)C(=O)N[C@@H](CCC(N)=O)C(=O)N[C@@H](CCC(=O)O)C(=O)N[C@@H](CC(C)C)C(=O)N[C@@H](CCCNC(=N)N)C(=O)N[C@@H](CCCNC(=N)N)C(=O)N[C@H](C(=O)NCC(=O)N[C@@H](CC(=O)O)C(=O)N[C@@H](CCC(=O)O)C(=O)N[C@@H](Cc1ccccc1)C(=O)O)[C@@H](C)CC)[C@@H](C)CC (Palmitoyl-IAQELRRIGDEF-OH) |  |
| > 50 | 443 | 0.9 | 1.52 | 0.5 | 0.25 | 18 | 69.1 | 11.6 | 7.8 | CC[C@H](C)[C@H](NC(=O)CCCCCCCCCCCCCCCCCCC(=O)O)C(=O)N[C@@H](C)C(=O)N[C@@H](CCC(N)=O)C(=O)N[C@@H](CCC(=O)O)C(=O)N[C@@H](CC(C)C)C(=O)N[C@@H](CCCNC(=N)N)C(=O)NC(CCCNC(=N)N)C(=O)N[C@H](C(=O)NCC(=O)N[C@@H](CC(=O)O)C(=O)N[C@@H](CCC(=O)O)C(=O)N[C@@H](Cc1ccccc1)C(=O)O)[C@@H](C)CC (some centres undefined) ({C20 diacid}-IAQELR[ξR]IGDEF-OH) | IC50 [11]: > 50000 nM; inhibition [12]: < 50%; Ratio IC50 [13]: > 113; Fasting blood glucose level [14]: 18.6 mmol/L; Fasting blood glucose level [15]: 11.3 mmol/L; Fasting blood glucose [16]: 9.7 mmol/L; Fasting blood glucose level [17]: 16 mmol/L; Fasting blood glucose level [18]: 19 mmol/L; Fasting blood glucose level [19]: 19.2 mmol/L; Activity [20]: Active; Activity [21]: Active; Activity [22]: Active; Activity [23]: Active; Activity [24]: Active |
